Among the test systems are HT29 colon; SF-539 CNS; K-562 leukemia; DU-145 prostate; A549 NSCLC; SN12C renal; UO-31 renal; NCI-H226 lung; HS 578T breast; M14 melanoma.
What all share (experiment): DTP human tumour cell line panel, 48 h

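Growth conditions: 96-well plates. Treatment: test compound, 48 hours, 5 concentrations. Analysis: linear interpolation between bracketing concentrations; unreached endpoints set to highest concentration. The concentration for full growth arrest is given as TGI.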

Usually TGI stands for the concentration giving total growth inhibition. Read a high TGI as less potent growth arrest. Consider `O=C(O)C1C2OC(C(Br)C2Br)C1C(=O)O` (stereo not given), for which the concentration for total growth inhibition (TGI) in the experiment on HT29 colon, in the experiment with SF-539 CNS, in the experiment with K-562 leukemia, in the experiment with DU-145 prostate, in the experiment on A549 NSCLC and in the experiment with SN12C renal was greater than 100 µM each time. For the same compound, the TGI in the experiment with UO-31 renal, in the experiment on NCI-H226 lung, with HS 578T breast and with M14 melanoma was greater than 100 µM in each case.

With `COc1cc2ccc(C(C)NCC#N)cc2cc1OC` (stereo not given), the TGI in the experiment with HT29 colon, with SF-539 CNS, with K-562 leukemia, in the experiment on DU-145 prostate, with A549 NSCLC and in the experiment with SN12C renal was greater than 100 µM each time. Further, the TGI in the experiment with UO-31 renal, with NCI-H226 lung, in the experiment with HS 578T breast and in the experiment with M14 melanoma was greater than 100 µM in each case.

Regarding `Cc1cc(C)n(C(C)(C(=O)Cc2ccccc2)n2nc(C)cc2C)n1`, the TGI in the experiment with HT29 colon, in the experiment on SF-539 CNS, in the experiment with K-562 leukemia, with DU-145 prostate, in the experiment with A549 NSCLC and in the experiment on SN12C renal was greater than 100 µM throughout. The TGI in the experiment with UO-31 renal, with NCI-H226 lung, in the experiment with HS 578T breast and in the experiment with M14 melanoma was greater than 100 µM in each case.

With `COc1cc2c(cc1OCCN1CCN(CCOc3cc4c(cc3OC)C(=O)N3CCC[C@H]3C=N4)CC1)N=C[C@@H]1CCCN1C2=O`, the total growth inhibition concentration (TGI) in the experiment with HT29 colon is greater than 100 µM; in the experiment with SF-539 CNS it was greater than 64.3 µM; in the experiment with K-562 leukemia, greater than 60.5 µM; in the experiment on DU-145 prostate it was greater than 100 µM; in the experiment with A549 NSCLC, greater than 100 µM; in the experiment on SN12C renal it was greater than 100 µM. Moreover, the TGI was greater than 73.7 µM in the experiment on UO-31 renal, 66.2 µM with NCI-H226 lung, greater than 100 µM in the experiment with HS 578T breast and greater than 83.6 µM in the experiment on M14 melanoma.

With `CCCCCCCCCCCCCCCCOC[C@H](COC(c1ccccc1)(c1ccccc1)c1ccccc1)O[P+](=S)OC` (stereo not given in full), the TGI in the experiment with HT29 colon, with SF-539 CNS, in the experiment with K-562 leukemia, with DU-145 prostate, in the experiment on A549 NSCLC and with SN12C renal was greater than 100 µM each time. In addition, the concentration for total growth inhibition (TGI) in the experiment with UO-31 renal, in the experiment on NCI-H226 lung, with HS 578T breast and in the experiment on M14 melanoma was greater than 100 µM throughout.

As for `CN(CC(=O)O)c1ncc2c(n1)-c1ccccc1CC2`, the TGI in the experiment on HT29 colon, in the experiment on SF-539 CNS, with K-562 leukemia, in the experiment with DU-145 prostate, in the experiment with A549 NSCLC and in the experiment on SN12C renal was greater than 100 µM throughout. The TGI with UO-31 renal, with NCI-H226 lung, in the experiment with HS 578T breast and with M14 melanoma was greater than 100 µM in each case.

Consider `C=C(CCC(=O)N(CCc1c[nH]c2ccccc12)C(=O)c1ccccc1CSCC)C(=O)OC`, for which the TGI in the experiment with HT29 colon, with SF-539 CNS, in the experiment on K-562 leukemia, in the experiment with DU-145 prostate, in the experiment on A549 NSCLC and with SN12C renal was greater than 100 µM in each case. Besides, the TGI in the experiment with UO-31 renal, with NCI-H226 lung, in the experiment on HS 578T breast and with M14 melanoma was greater than 100 µM in each case.

Turning to `N#Cc1cc2c(n(C3OC(CO)C(O)C(O)C3O)c1=S)CCC2` (stereo not given), the TGI with HT29 colon, with SF-539 CNS, in the experiment on K-562 leukemia, in the experiment with DU-145 prostate, in the experiment with A549 NSCLC and with SN12C renal was greater than 100 µM each time. In addition, the TGI in the experiment on UO-31 renal, in the experiment with NCI-H226 lung, with HS 578T breast and with M14 melanoma was greater than 100 µM each time.

For the compound `COc1ccccc1-c1cc(=O)c2cccnc2[nH]1`, the concentration for total growth inhibition (TGI) in the experiment on HT29 colon, in the experiment with SF-539 CNS, with K-562 leukemia, with DU-145 prostate, in the experiment with A549 NSCLC and in the experiment with SN12C renal was greater than 100 µM each time. For the same compound, the TGI with UO-31 renal, with NCI-H226 lung, with HS 578T breast and in the experiment on M14 melanoma was greater than 100 µM in each case.

With `CCOC1OC(C)(C=C(C#N)C#N)CCC1C` (stereo not given), the TGI in the experiment with HT29 colon is greater than 93.9 µM; in the experiment on SF-539 CNS it was 56.6 µM; in the experiment with K-562 leukemia, 56.8 µM; with DU-145 prostate, greater than 100 µM; in the experiment with A549 NSCLC, greater than 100 µM; in the experiment with SN12C renal, greater than 86.6 µM. In addition, the TGI with UO-31 renal is 97.7 µM; in the experiment with NCI-H226 lung, 55.2 µM; with HS 578T breast, greater than 89.1 µM; in the experiment on M14 melanoma it was greater than 100 µM.

`Clc1ccc(-c2nn3c(COc4ccc(OCc5nnc6sc(-c7ccc(Cl)cc7)nn56)c(Cl)c4)nnc3s2)cc1`: the TGI in the experiment with HT29 colon was 36.7 µM; with SF-539 CNS, greater than 100 µM; in the experiment with K-562 leukemia, greater than 100 µM; in the experiment on DU-145 prostate, greater than 100 µM; in the experiment on A549 NSCLC it was 90.2 µM; in the experiment on SN12C renal, greater than 100 µM. Besides, the TGI is 42.1 µM in the experiment on UO-31 renal, greater than 100 µM in the experiment with NCI-H226 lung, greater than 100 µM in the experiment with HS 578T breast and greater than 100 µM in the experiment on M14 melanoma.

With `CC[P+](c1ccccc1)(N(C)C)N(C)C`, the TGI with HT29 colon, in the experiment on SF-539 CNS, in the experiment with K-562 leukemia, with DU-145 prostate, in the experiment with A549 NSCLC and with SN12C renal was greater than 100 µM each time. Further, the TGI in the experiment with UO-31 renal, in the experiment on NCI-H226 lung, in the experiment with HS 578T breast and in the experiment with M14 melanoma was greater than 100 µM in each case.

As for `COc1cc(/C=C2\C(=O)N(c3ccc(Cl)cc3)C(c3ccccc3)S2(=O)=O)cc(OC)c1OC` (stereo not given), the TGI in the experiment with HT29 colon, in the experiment on SF-539 CNS, in the experiment on K-562 leukemia, in the experiment on DU-145 prostate, in the experiment with A549 NSCLC and with SN12C renal was greater than 100 µM in each case. Also, the TGI is greater than 100 µM in the experiment with UO-31 renal, greater than 100 µM with NCI-H226 lung, greater than 100 µM with HS 578T breast and greater than 61.6 µM with M14 melanoma.

Values taken from PubChem BioAssay (NCI).
